Here are results for one compound from patent US11945822B2, “Pyrazolo-triazine and/or pyrazolo-pxrimidine derivatives as selective inhibitor of cyclin dependent kinase” (QURIENT CO., LTD., priority 2018, dated 2024).

Each structure is given as a SMILES string.

Format in all cases: biochemical
The target in one test is T1, CDK1/Cyclin B (Homo sapiens, UniProt P06493).
T1 construct: purchased Invitrogen PR4768C
Nature of the test: Enzymatic assay for CDK1 (FRET based LANCE Ultra kinase assay). To be noted: read-out: CDK1 enzymatic activity (IC50 range). The procedure, abridged:
(§1)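 TR-FRET (LANCE Ultra) kinase assay at ATP Km, ULight-MBP peptide substrate (68 nM), 8-dose 4-fold compound series in DMSO. Enzymes: […]; 60 min at 23° C., stopped with EDTA plus Eu-anti-phospho-MBP antibody, read 665/615 nm after 60 min.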
For orientation: In TR-FRET formats the signal depends on donor and acceptor labels being close together.

For a further test, the target named is T2, CDK2/Cyclin A (Homo sapiens, UniProt P24941).
T2 construct: purchased Invitrogen PV6290
Nature of the test: Enzymatic assay for CDK2 (FRET based LANCE Ultra kinase assay). The following applies: read-out: CDK2 enzymatic activity (IC50 range). The procedure, abridged:
as §1

A further test concerns the target T3, CDK5/p25 (Homo sapiens, UniProt Q00535).
T3 construct: purchased Invitrogen PR8543B
The test is described as follows: Enzymatic assay for CDK5 (FRET based LANCE Ultra kinase assay). To be noted: read-out: CDK5 enzymatic activity (IC50 range). The gist of the method: as §1

Another test deals with T4, CDK7/Cyclin H/MNAT1 (Homo sapiens, UniProt P50613).
T4 construct: purchased Invitrogen PR6749B
T4 sequence (P50613 whole entry): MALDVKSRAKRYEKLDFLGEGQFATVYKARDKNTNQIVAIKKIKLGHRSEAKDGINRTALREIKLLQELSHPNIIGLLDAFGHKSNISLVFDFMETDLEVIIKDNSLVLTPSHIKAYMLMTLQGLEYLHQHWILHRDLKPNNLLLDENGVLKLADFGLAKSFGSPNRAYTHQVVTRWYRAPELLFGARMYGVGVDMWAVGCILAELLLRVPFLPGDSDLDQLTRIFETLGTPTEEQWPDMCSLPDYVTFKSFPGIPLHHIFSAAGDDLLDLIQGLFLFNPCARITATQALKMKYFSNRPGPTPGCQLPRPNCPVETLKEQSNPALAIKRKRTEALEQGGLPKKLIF
T4 sequence (P51946 whole entry partner): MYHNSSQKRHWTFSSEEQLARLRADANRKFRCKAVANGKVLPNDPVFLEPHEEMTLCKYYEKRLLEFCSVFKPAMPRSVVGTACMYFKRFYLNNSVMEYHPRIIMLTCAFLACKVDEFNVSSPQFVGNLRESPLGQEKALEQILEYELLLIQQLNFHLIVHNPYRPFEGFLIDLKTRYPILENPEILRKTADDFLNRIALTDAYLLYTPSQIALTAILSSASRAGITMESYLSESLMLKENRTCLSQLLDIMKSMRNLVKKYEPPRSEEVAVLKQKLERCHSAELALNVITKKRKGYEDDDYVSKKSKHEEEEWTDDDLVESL
T4 sequence (P51948 whole entry partner): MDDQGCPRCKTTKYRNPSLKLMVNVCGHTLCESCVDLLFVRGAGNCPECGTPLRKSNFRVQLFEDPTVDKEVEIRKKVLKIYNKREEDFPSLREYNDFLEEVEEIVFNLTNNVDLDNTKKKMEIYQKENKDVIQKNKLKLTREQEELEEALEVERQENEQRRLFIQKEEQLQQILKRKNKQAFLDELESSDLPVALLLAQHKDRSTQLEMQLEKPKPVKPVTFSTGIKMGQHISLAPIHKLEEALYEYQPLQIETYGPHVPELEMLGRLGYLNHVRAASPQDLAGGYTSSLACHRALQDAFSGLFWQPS
Nature of the test: Enzymatic assay for CDK7 (FRET based LANCE Ultra kinase assay). The procedure, abridged: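 LANCE Ultra TR-FRET kinase assay using a ULight-labeled peptide substrate and a Eu-labeled anti-phospho antibody, with ATP at its Km. Purified CDK/cyclin complex was added to compound after brief centrifugation.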

For a further test, the target named is T5, CDK1/CycE1 (Homo sapiens, UniProt P06493).
T5 construct: purchased ProQinase GmbH
T5 sequence (P06493 whole entry): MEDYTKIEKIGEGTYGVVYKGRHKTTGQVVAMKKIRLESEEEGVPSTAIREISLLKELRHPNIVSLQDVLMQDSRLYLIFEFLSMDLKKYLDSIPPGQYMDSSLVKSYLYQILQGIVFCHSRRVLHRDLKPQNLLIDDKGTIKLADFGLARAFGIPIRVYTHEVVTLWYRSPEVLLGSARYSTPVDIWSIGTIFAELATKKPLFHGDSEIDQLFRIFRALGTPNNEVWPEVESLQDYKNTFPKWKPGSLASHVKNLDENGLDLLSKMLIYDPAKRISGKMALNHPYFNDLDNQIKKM
T5 sequence (P24864 whole entry partner): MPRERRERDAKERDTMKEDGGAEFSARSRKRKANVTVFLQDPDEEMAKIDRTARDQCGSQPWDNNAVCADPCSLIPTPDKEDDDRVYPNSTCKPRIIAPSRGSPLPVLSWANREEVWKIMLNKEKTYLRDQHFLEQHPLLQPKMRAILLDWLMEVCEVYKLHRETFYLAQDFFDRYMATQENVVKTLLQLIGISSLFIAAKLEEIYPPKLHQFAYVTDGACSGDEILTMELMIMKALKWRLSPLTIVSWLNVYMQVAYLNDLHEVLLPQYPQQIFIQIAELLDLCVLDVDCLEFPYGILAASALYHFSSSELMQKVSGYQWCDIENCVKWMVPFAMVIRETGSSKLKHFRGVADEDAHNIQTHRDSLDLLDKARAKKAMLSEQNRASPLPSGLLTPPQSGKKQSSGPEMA
The test is described as follows: In vitro IC50 profile for CDKs family kinase (33PanQinase radiometric assay). The following applies: CDK7 selectivity profile in CDKs family. Here is the method: (§2) In Vitro IC50 Profile for CDK7 Inhibitor Among 28 CDKs Family Kinases.
(§3) The IC50 profile of compounds were determined using 28 CDKs family protein kinases through ProQinase GmbH (Freiburg, Germany). All the protocol and materials had been provided by ProQinase GmbH. Briefly, in the process, 90 μl H2O were added to each well of a compound dilution plate. To minimize potential precipitation, the H2O was added to the plate only a few minutes before the transfer of the compound solutions into the assay plates. The plate was shaken thoroughly, resulting in a “compound dilution plate/10% DMSO”. The compound dilution plate(s) were discarded at the end of the working day. For the assays (see below), 5 μl solution from each well of the compound dilution plate were transferred into the assay plates. The final volume of the assay was 50 μl. All compounds were tested at 10 final assay concentrations in the range from 1×10^−05 M to 3×10^−10 M. The final DMSO concentration in the reaction cocktails was 1% in all cases. All protein kinases provided by ProQinase were expressed in Sf9 insect cells or in E. coli as recombinant GST-fusion proteins or His-tagged proteins, either as full-length or enzymatically active fragments. All kinases were produced from human cDNAs and purified by either GSH affinity chromatography or immobilized metal affinity chromatography. The purity of the protein kinases was examined by SDS-PAGE/Coomassie staining, the identity was checked by mass spectroscopy. Kinases from external vendors, Carna Biosciences Inc.; Invitrogen Corp.; and Millipore Corp., were expressed, purified and quality-controlled by virtue of the vendors readings. A radiometric protein kinase assay (^33PanQinase® Activity Assay) was used for measuring the kinase activity of the 28 protein kinases. All kinase assays were performed in 96-well FlashPlates™ from PerkinElmer (Boston, MA, USA) in a 50 μl reaction volume. The reaction cocktails were incubated at 30° C. for 60 minutes. The reaction was stopped with 50 μl of 2% (v/v) H3PO4, plates were aspirated and washed two times with 200 μl 0.9% (w/v) NaCl. Incorporation of ^33Pi was determined with a microplate scintillation counter (Microbeta, Wallac). All assays were performed with a BeckmanCoulter/SAGIAN™ Core System. As part of the data evaluation the low control value from a particular plate was subtracted from the high control value as well as from all 80 “compound values” of the corresponding plate. The residual activity (in %) for each well of a particular plate was calculated by using the following formula: Res. Activity (%)=100×[(cpm of compound−low control)/(high control−low control)]. Results are represented in table (table 10).

For the next test, the target named is T6, CDK2/CycA2 (Homo sapiens, UniProt P24941).
T6 construct: purchased ProQinase GmbH
The description is as above. To be noted: CDK7 selectivity profile in CDKs family. Here is the method:
as §2, §3

In a further test the target is T7, CDK4/CycD1 (Homo sapiens, UniProt P11802).
T7 construct: purchased ProQinase GmbH
T7 sequence (P11802 whole entry): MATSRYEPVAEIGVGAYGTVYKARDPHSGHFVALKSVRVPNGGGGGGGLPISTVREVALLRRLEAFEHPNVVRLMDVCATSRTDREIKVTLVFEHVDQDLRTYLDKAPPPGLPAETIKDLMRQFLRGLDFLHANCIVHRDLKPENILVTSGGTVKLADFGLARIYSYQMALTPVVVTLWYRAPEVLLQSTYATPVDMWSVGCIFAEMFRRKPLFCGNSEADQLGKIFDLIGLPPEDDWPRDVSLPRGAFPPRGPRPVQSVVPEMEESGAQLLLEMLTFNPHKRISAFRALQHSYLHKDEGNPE
T7 sequence (P24385 whole entry partner): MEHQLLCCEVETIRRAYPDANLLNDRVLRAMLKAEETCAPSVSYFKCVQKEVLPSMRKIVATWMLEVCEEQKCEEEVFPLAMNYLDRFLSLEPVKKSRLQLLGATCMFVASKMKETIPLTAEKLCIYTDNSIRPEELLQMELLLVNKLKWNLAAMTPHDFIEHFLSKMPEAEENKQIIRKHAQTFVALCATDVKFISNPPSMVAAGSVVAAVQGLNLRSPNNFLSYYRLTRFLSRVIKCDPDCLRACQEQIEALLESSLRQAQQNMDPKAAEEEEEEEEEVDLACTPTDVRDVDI
The description is as above. The following applies: CDK7 selectivity profile in CDKs family. Here is the method: as §2, §3

T1 sequence (P06493 whole entry): as the sequence (P06493 whole entry) above
T1 sequence (P14635 whole entry partner): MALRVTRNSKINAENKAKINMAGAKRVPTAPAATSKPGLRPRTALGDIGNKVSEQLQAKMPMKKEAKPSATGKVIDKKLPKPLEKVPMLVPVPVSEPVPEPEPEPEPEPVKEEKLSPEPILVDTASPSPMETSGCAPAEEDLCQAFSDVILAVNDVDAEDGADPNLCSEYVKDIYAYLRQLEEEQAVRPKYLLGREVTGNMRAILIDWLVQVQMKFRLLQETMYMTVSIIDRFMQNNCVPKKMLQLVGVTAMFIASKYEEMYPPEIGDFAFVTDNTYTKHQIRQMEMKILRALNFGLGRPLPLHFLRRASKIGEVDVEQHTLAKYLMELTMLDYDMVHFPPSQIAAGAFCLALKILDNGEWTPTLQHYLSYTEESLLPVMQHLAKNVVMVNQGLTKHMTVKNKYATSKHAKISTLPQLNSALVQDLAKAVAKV
T3 sequence (Q00535 whole entry): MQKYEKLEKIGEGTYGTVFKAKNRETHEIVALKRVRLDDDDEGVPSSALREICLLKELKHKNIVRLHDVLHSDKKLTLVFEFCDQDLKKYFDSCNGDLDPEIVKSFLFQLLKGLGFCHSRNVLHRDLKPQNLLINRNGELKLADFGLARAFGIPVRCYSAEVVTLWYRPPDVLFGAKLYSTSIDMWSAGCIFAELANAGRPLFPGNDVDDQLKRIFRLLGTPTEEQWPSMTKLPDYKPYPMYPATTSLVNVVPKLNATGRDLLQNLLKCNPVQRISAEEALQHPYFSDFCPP
T3 sequence (Q15078 99-307 partner limits assumed): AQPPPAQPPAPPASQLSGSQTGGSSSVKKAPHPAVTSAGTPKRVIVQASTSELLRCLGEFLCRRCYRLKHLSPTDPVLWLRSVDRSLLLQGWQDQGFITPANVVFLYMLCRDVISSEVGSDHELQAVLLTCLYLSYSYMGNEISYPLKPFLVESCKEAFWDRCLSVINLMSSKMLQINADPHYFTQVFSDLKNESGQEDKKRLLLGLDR

As usually defined, the IC50 is the concentration needed to halve the response being measured. Consider `CC(C)c1cnn2c(NCc3c(Cl)cccc3-n3ccc(C(C)(C)O)n3)nc(N3CCC(N)CC3)nc12` [Compound 210], for which the IC50 was more than 1000 nM at CDK1/Cyclin B; more than 1000 nM on CDK2/Cyclin A; 100 to 1000 nM on CDK5/p25; less than 100 nM on CDK7/Cyclin H/MNAT1 (read-out: CDK7 enzymatic activity (IC50 range)); more than 10000 nM against CDK1/CycE1; 3610 nM against CDK2/CycA2. Moreover, at CDK4/CycD1, the half-inhibitory concentration (IC50) was more than 10000 nM. Also, on CDK7/Cyclin H/MNAT1 (CDK7 over CDK1), the “CDK1/CDK7: Selectivity of CDK7 inhibition over CDK1 inhibition” value is listed as “A (A=greater than 200 fold)”. Moreover, the “CDK2/CDK7: Selectivity of CDK7 inhibition over CDK2 inhibition” value at CDK7/Cyclin H/MNAT1 (CDK7 over CDK2) was “A (A=greater than 200 fold)”. Moreover, at CDK7/Cyclin H/MNAT1 (CDK7 over CDK5), the “CDK5/CDK7: Selectivity of CDK7 inhibition over CDK5 inhibition” value is on record as “A (A=greater than 200 fold)”.
